Test results taken from patent publication US20240199572A1, “COMPOUNDS, COMPOSITIONS, AND METHODS FOR TREATING TYPE 2 DIABETES AND DEMENTIA” (THE BOARD OF TRUSTEES OF THE UNIVERSITY OF ILLINOIS, priority 2021, published 2024).

Experiments:
PPARγ [1] = target: T1, PPARγ (Homo sapiens, UniProt P37231); assay: LanthaScreen TR-FRET coactivator assay PPARγ (antagonism of pioglitazone); type: biochemical
T1 construct: purchased Thermo Fisher Scientific
T1 sequence (P37231 232-505 limits assumed): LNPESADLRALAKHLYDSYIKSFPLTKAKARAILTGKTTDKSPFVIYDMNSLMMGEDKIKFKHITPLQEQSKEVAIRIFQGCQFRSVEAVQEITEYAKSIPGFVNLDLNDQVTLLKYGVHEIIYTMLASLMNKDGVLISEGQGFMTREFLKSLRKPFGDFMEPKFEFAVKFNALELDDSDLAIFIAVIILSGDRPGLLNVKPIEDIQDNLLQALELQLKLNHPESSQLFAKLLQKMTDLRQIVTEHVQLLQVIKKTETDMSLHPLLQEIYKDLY
Description: TR-FRET Receptor Binding Assays. LanthaScreen” TR-FRET coactivator assay kits for LXRβ (Thermo Fisher Scientific) and PPARγ (Thermo Fisher Scientific) were performed according to manufacturer instructions using low-binding black 384-well plates and Synergy Neo2 plate reader. For the PPARγ assay, standardization was first performed with control agonist (pioglitazone), then run in two antagonist assays: dose-response of pioglitazone with or without a single concentration of CL2-57, and dose-response of CL2-57 cotreated with a single concentration (500 nM) of pioglitazone. Each compound dose was performed in quadruplicate on each plate, and each experiment was performed in triplicate.

C57Bl/6 control mice = assay: C57Bl/6 control mice, daily p.o. CL2-57 for one week; type: in vivo, mouse
PPARγ [2] = target: T2, PPARγ (Homo sapiens, UniProt P37231); assay: PPARγ NHR screen, antagonist mode; conditions: cell-based β-gal reporter assay, 10 μM
T2 sequence (P37231 1-505): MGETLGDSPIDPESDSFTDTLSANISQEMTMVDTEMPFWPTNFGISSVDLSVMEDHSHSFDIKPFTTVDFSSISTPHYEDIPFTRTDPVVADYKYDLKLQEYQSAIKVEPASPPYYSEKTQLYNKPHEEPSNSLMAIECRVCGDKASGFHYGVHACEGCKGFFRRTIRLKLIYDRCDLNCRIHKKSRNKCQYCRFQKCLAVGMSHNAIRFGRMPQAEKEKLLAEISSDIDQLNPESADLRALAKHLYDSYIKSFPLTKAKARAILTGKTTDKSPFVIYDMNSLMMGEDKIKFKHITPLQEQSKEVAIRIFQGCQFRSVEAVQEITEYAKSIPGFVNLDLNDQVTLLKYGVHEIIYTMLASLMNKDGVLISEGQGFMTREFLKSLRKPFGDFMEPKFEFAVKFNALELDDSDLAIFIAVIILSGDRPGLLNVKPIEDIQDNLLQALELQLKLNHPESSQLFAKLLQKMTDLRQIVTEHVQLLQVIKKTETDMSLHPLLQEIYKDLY
Description: (§1) Receptor Binding Assays. Nuclear hormone (NHR) assays were performed by DiscoverX (Fremont, CA) on their NHR-Scan platform of cell-based protein-protein interaction assays. This platform uses a […] reporter that activates upon interaction of full-length receptor protein with steroid coactivator receptor peptides. In agonist mode, activity of CL2-57 at 10 μM was compared to maximal activity of published positive control agonists; in antagonist mode, reduction in activity with 10 μM CL2-57 from that observed at […] of published agonists was quantified.

ABCA1 protein = ABCA1 protein - HepG2 (immunoblot); type: cell-based; conditions: HepG2 hepatocarcinoma cells
Description: In vitro Immunoblot. Cells were lysed with RIPA buffer (Sigma) containing protease/phosphatase inhibitors (Cocktails II and III, respectively, EMD Millipore). Protein was quantified by BCA assay (Thermo Fisher Scientific). Denatured proteins were separated by gel electrophoresis (NuPage™ 4-12% Bis-Tris, Invitrogen) in MOPS running buffer at 120 V for 1 hour. Proteins were transferred to PDVF membranes (iBlot2). Membrane was blocked in 5% skim milk for 1 hour, incubated with primary antibody at 4° C. overnight, washed with TBST, and then incubated with HRP-linked secondary antibody (Cell Signaling Technology) for 1 hour at room temperature. After TBST wash, membrane was imaged using SUPERSIGNAL® West Femto™ substrate (Thermo Fisher Scientific) on Azure Biosystems c400 imager. Antibodies used: Abcam ab18180 (ABCA1, RRID:AB 444302), Thermo Fisher MA5-11685 (SREBP1, RRID:AB_10984077), Invitrogen MA5-15738 (GAPDH, RRID:AB_10977387).

RXRγ = target: T3, RXRγ (Homo sapiens, UniProt P48443); assay: RXRγ NHR screen, antagonist mode; conditions: cell-based β-gal reporter assay, 10 μM
T3 sequence (P48443 1-463): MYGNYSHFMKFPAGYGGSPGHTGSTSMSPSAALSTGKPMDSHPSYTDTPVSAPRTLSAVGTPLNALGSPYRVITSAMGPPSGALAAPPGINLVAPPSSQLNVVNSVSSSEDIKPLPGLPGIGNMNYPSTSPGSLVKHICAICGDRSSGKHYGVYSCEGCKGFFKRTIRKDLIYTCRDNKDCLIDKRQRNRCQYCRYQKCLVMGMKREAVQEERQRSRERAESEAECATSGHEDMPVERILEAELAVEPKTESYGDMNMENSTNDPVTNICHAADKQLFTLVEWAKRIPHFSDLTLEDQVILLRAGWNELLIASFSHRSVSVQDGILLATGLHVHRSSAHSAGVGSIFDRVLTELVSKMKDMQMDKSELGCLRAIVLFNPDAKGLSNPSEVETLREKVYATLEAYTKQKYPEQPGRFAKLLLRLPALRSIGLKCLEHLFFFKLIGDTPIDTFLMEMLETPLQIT
Description: as §1

LXRβ = target: T4, LXRβ (Homo sapiens, UniProt P55055); assay: LXRβ NHR screen (DiscoverX NHR-Scan, β-gal reporter); type: cell-based
T4 sequence (P55055 1-460): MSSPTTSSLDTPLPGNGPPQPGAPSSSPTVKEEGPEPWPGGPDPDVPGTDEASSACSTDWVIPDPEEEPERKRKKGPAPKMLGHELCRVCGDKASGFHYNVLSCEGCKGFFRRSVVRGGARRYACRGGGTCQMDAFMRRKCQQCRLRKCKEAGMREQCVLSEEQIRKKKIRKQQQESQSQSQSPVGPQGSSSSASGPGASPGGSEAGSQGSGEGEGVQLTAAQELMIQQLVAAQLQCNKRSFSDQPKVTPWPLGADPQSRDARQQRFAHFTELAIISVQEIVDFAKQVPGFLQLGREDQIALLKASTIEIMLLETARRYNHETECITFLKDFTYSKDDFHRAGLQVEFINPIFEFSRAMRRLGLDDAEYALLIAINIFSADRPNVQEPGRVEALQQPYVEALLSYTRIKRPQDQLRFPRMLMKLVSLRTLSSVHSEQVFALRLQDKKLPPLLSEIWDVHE
Description: as §1

Activity in PPARγ TR-FRET binding assay (PPARγ [1]): Weak competitive antagonism
Right-shift in the TR-FRET dose-response for pioglitazone (PPARγ [1]; addition of 10 μM CL2-57, p<0.01): 2.1 fold
TR-FRET signal reduction (PPARγ [1]; constant pioglitazone concentration, CL2-57 at concentrations ≥1 μM): 20-45%
Hepatic lipogenesis (C57Bl/6 control mice; 10 mg/kg daily p.o. one week): low-magnitude increases
Plasma TG or cholesterol compared to vehicle controls (C57Bl/6 control mice; C57Bl/6 mice, one week daily p.o.): no changes
Functional mode at PPARγ (PPARγ [2]): weak antagonist
Functional mode at RXRγ (RXRγ): weak antagonist
LXRβ NHR screen, activity of CL2-57 (10 μM) as % of T0901317 (1 μM) (LXRβ; 10 μM): 75%
LXR β/α selectivity by Emax (LXRβ; cell-based β-gal reporter assays): 2.5 fold
Functional mode at LXR (LXRβ; cell-based β-gal reporter assays, 10 μM): partial LXR agonist
Compound: CCOC(=O)c1cccc(NC(=O)c2sc(Cl)cc2S(=O)(=O)N(C)c2ccc(OCC)c(OCC)c2)c1 [CL2-57, ethyl 3-(5-chloro-3-(N-(3,4-diethoxyphenyl)-N-methylsulfamoyl)thiophene-2-carboxamido) benzoate]
ABCA1 protein (ABCA1 protein): Increased
